Reference: US20120129833A1, “CYCLIC KETOENOLS FOR THERAPY” (BAYER PHARMA AKTIENGESELLSCHAFT, priority 2010, published 2012)

Legend:
[1] = target: T1, recombinant human ACC1 (acetyl-CoA carboxylase 1) (Homo sapiens, UniProt Q13085); assay: Human ACC1 enzyme assay (HTRF ADP detection); type: biochemical; conditions: 50 μM ATP, 20 μM acetyl-CoA, 15 min pre-incubation, 20 min at 22° C.; read-out: ACC 1 IC50;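 note: ADP by-product quantified by competitive HTRF immunoassay with europium cryptate anti-ADP antibody and d2-labelled ADP, read after 1 h binding at 22 °C, enzyme near 2.5 ng/µl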
T1 construct: NM_198834, amino acids 39—end; FLAG (C); made in house; host or cells: baculovirus-transfected insect cells (Hi5)
Protocol: The basic principle of the assay is the measurement of adenosine diphosphate (ADP), which is formed as a by-product, by means of an HTRF®-based competitive immunoassay (HTRF=Homogeneous Time Resolved Fluorescence).
The amount of complex of d2-labelled ADP and europium cryptate-labelled anti-ADP antibody was then determined by measuring the resonance energy transfer of europium cryptate to d2.

[2] = target: T2, ACC2 (acetyl-CoA carboxylase 2) (Homo sapiens, UniProt O00763); assay: Human ACC2 enzyme assay (HTRF ADP detection); type: biochemical; conditions: 20 μM acetyl-CoA, 15 min pre-incubation, 20 min at 22° C.; read-out: ACC 2 IC50
T2 construct: catalogue no; 50201, amino acids 39—end, expressed in baculovirus-transfected Sf9 insect cells; His (C); purchased BPS Bioscience (San Diego, Calif.) 50201; host or cells: baculovirus-transfected Sf9 insect cells
T2 sequence (O00763 39-2458 limits assumed): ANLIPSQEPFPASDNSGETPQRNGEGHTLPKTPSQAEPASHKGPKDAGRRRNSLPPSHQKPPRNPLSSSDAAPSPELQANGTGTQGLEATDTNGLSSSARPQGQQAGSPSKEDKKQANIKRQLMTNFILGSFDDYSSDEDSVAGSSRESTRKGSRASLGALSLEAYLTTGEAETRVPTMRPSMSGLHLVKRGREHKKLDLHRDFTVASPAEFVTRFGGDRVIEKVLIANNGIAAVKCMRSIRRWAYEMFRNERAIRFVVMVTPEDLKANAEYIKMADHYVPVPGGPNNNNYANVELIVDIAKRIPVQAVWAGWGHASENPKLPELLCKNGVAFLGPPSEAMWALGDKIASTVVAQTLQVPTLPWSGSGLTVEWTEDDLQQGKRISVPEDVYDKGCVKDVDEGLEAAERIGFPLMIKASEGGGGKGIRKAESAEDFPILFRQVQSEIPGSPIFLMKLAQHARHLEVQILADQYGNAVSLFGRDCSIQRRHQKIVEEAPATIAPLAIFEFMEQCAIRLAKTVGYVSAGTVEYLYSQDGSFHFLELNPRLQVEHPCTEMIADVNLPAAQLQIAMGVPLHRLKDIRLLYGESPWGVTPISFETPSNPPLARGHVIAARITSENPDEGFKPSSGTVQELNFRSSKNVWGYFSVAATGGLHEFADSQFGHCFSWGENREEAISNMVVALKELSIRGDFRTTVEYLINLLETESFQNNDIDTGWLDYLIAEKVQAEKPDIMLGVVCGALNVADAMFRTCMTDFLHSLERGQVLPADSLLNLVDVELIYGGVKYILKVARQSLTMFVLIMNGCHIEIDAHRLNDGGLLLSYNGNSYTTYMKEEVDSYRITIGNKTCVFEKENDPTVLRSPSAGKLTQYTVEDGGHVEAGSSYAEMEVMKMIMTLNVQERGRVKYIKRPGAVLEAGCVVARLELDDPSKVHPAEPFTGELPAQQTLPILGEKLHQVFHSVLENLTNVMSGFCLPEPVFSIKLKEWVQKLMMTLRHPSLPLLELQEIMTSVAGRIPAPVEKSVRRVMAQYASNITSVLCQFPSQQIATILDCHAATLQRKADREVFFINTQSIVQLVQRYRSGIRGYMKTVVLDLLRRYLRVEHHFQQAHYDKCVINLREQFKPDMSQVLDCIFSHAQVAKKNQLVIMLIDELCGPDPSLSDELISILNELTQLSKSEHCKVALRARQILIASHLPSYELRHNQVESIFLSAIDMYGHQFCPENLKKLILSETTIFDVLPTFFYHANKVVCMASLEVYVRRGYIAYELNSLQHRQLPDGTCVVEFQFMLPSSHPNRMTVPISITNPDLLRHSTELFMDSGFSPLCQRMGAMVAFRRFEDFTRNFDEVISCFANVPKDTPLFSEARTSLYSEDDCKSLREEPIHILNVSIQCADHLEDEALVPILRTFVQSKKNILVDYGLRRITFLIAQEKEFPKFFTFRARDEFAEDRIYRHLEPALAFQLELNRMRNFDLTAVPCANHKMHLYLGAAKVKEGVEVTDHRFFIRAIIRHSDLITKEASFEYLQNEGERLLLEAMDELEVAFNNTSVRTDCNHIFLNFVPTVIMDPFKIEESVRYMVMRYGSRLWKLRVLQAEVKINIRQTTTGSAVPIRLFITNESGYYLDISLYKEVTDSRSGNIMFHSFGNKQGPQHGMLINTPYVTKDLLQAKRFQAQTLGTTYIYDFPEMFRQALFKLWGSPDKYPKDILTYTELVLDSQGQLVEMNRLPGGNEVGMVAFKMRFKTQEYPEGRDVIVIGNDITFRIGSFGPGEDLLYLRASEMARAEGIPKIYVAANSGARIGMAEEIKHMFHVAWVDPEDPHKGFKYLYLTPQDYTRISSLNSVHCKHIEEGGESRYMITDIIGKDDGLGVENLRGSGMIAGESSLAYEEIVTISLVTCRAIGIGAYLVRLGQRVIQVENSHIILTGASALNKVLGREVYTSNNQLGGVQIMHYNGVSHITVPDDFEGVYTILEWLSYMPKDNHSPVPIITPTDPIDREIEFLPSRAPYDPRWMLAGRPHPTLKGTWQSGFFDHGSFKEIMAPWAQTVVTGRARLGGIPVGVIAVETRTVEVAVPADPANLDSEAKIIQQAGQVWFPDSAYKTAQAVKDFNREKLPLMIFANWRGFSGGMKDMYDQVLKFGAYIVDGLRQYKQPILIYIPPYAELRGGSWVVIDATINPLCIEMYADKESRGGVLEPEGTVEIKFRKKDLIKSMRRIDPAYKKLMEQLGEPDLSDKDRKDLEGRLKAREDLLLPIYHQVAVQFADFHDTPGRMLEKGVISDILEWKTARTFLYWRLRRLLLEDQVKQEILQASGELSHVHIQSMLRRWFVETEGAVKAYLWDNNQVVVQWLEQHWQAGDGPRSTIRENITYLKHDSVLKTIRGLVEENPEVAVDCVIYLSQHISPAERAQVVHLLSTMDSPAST

SMILES | IC50 [1] [nM] | IC50 [2] [nM]
Cc1ccc(-c2ccc(Cl)cc2)cc1C1C(=O)N(C)N(C)C1=O [Example 8-14, 4-(4′-chloro-4-methylbiphenyl-3-yl)-1,2-dimethyl-1H-pyrazole-3,5(2H,4H)-dione] | 2400 | > 20000
CCC1CCC2(CC1)OC(=O)C(c1cc(-c3ccc(Cl)cc3)ccc1C)=C2O (stereo not shown) [Example 2-1, 3-(4′-chloro-4-methylbiphenyl-3-yl)-8-ethyl-4-hydroxy-1-oxaspiro[4.5]dec-3-en-2-one] | 243 | 4150
Cc1ccc(-c2ccc(F)c(F)c2)cc1C1=C(O)C2(CCCC2)OC1=O [Example 2-22, 3-(3′,4′-difluoro-4-methylbiphenyl-3-yl)-4-hydroxy-1-oxaspiro[4.4]non-3-en-2-one] | 824 | > 20000
Cc1ccc(-c2ccc(Cl)cc2)cc1C1=C(O)[C@@]2(CC[C@H](OCC(C)C)C2)NC1=O (relative stereo) [Example 1-49, rel-(5R,7R)-3-(4′-chloro-4-methylbiphenyl-3-yl)-4-hydroxy-7-(2-methylpropoxy)-1-azaspiro[4.4]non-3-en-2-one] | 240 | 9900
COC1CCCC2(C1)OC(=O)C(c1cc(-c3ccc(Cl)cc3)ccc1Cl)=C2O (stereo not shown) [Example 2-13, 3-(4,4′-dichlorobiphenyl-3-yl)-4-hydroxy-7-methoxy-1-oxaspiro[4.5]dec-3-en-2-one] | 816 | > 20000
Cc1ccc(-c2ccc(Cl)cc2)cc1C1=C(O)CN(C2CC2)C1=O [Example 1-18, 3-(4′-chloro-4-methylbiphenyl-3-yl)-1-cyclopropyl-4-hydroxy-1,5-dihydro-2H-pyrrol-2-one] | 797 | 7610
Cc1ccc(-c2ccc(F)cc2)cc1C1=C(O)C2(CCCCC2)OC1=O [Example 2-21, 3-(4′-fluoro-4-methylbiphenyl-3-yl)-4-hydroxy-1-oxaspiro[4.5]dec-3-en-2-one] | 400 | > 20000
Cc1ccc(-c2ccc(F)cc2)c(C)c1C1C(=O)N2CCOCCN2C1=O [Example 8-7, 8-(4′-fluoro-2,4-dimethylbiphenyl-3-yl)tetrahydro-7H-pyrazolo[1,2-d][1,4,5]oxadiazepine-7,9(8H)-dione] | 2380 | > 20000
Cc1ccc(-c2ccc(Cl)cc2)cc1-c1c(O)c2ccc(F)cc2[nH]c1=O [Example 9-8, 3-(4′-chloro-4-methylbiphenyl-3-yl)-7-fluoro-4-hydroxyquinolin-2(1H)-one] | 418 | > 20000
COCCO[C@@H]1CCC[C@]2(C1)NC(=O)C(c1cc(-c3ccc(Cl)cc3)ccc1Cl)=C2O (relative stereo) [Example 1-74, rel-(5R,7R)-3-(4,4′-dichlorobiphenyl-3-yl)-4-hydroxy-7-(2-methoxyethoxy)-1-azaspiro[4.5]dec-3-en-2-one] | 656 | 16400
Cc1ccc(-c2ccc(Cl)cc2)cc1C1=C(O)C(C)(C(C)C)NC1=O (stereo not shown) [Example 1-78, 3-(4′-chloro-4-methylbiphenyl-3-yl)-4-hydroxy-5-methyl-5-(propan-2-yl)-1,5-dihydro-2H-pyrrol-2-one] | 795 | 1730
O=C1NC2(CCC3(CC2)OCCCO3)C(O)=C1c1cc(-c2ccc(Cl)cc2)ccc1Cl [Example 1-58, 3-(4,4′-dichlorobiphenyl-3-yl)-4-hydroxy-9,13-dioxa-1-azadispiro[4.2.5.2]pentadec-3-en-2-one] | 362 | 11500
Cc1ccc(-c2ccc(Cl)cc2)cc1C1=C(O)C2(CCC3(CC2)OCC(C)O3)NC1=O (stereo not shown) [Example 1-63, 11-(4′-chloro-4-methylbiphenyl-3-yl)-12-hydroxy-2-methyl-1,4-dioxa-9-azadispiro[4.2.4.2]tetradec-11-en-10-one] | 391 | 4220
COC1CCC2(CC1)NC(=O)C(c1c(C)cc(C)c(-c3ccc(Cl)cc3)c1C)=C2O (stereo not shown) [Example 1-9, 3-(4′-chloro-2,4,6-trimethylbiphenyl-3-yl)-4-hydroxy-8-methoxy-1-azaspiro[4.5]dec-3-en-2-one] | 16600 | 626
COCC1CCC2(CC1)OC(=O)C(c1cc(-c3ccc(Cl)cc3)ccc1Cl)=C2O (stereo not shown) [Example 2-16, 3-(4,4′-dichlorobiphenyl-3-yl)-4-hydroxy-8-(methoxymethyl)-1-oxaspiro[4.5]dec-3-en-2-one] | 180 | 3340
CCOC1CCC2(CC1)NC(=O)C(c1cc(-c3cccc(Cl)c3)ccc1C)=C2O (stereo not shown) [Example 1-79, 3-(3′-chloro-4-methylbiphenyl-3-yl)-8-ethoxy-4-hydroxy-1-azaspiro[4.5]dec-3-en-2-one] | 848 | > 20000
O=C1OC2(CCC3(CCCO3)CC2)C(O)=C1c1cc(-c2ccc(Cl)cc2)ccc1Cl (stereo not shown) [Example 2-27, 3-(4,4′-dichlorobiphenyl-3-yl)-4-hydroxy-1,9-dioxadispiro[4.2.4.2]tetradec-3-en-2-one] | 822 | 4150
CO[C@H]1CC[C@]2(CC1)NC(=O)C(c1cc(-c3ccc(F)c(Cl)c3)ccc1C)=C2O [Example 1-43, (5s,8s)-3-(3′-chloro-4′-fluoro-4-methylbiphenyl-3-yl)-4-hydroxy-8-methoxy-1-azaspiro[4.5]dec-3-en-2-one] | 304 | 10200
COCCC1(C)NC(=O)C(c2cc(-c3ccc(Cl)cc3)ccc2C)=C1O (stereo not shown) [Example 1-47, 3-(4′-chloro-4-methylbiphenyl-3-yl)-4-hydroxy-5-(2-methoxyethyl)-5-methyl-1,5-dihydro-2H-pyrrol-2-one] | 923 | > 20000
Cc1ccc(-c2ccc(C)c(C3=C(O)C4(CCCCC4)NC3=O)c2)cc1 [Example 1-13, 3-(4,4′-dimethylbiphenyl-3-yl)-4-hydroxy-1-azaspiro[4.5]dec-3-en-2-one] | 353 | 18900
Cc1cc(C)c(-c2ccc(Cl)cc2)c(C)c1C1=C(O)C2(CCCCCC2)OC1=O [Example 2-48, 3-(4′-chloro-2,4,6-trimethylbiphenyl-3-yl)-4-hydroxy-1-oxaspiro[4.6]undec-3-en-2-one] | 1800 | 204
COCCC1CCCC2(C1)OC(=O)C(c1cc(-c3ccc(Cl)cc3)ccc1Cl)=C2O (stereo not shown) [Example 2-19, 3-(4,4′-dichlorobiphenyl-3-yl)-4-hydroxy-7-(2-methoxyethyl)-1-oxaspiro[4.5]dec-3-en-2-one] | 530 | 10000
Cc1ccc(-c2ccc(Cl)cc2)cc1C1C(=O)N(C)OC(C)(C)C1=O (stereo not shown) [Example 11-1, 4-(4′-chloro-4-methylbiphenyl-3-yl)-2,6,6-trimethyl-1,2-oxazinane-3,5-dione] | 4000 | > 20000
COC1CCC2(CC1)OC(=O)C(c1cc(-c3ccc(Cl)cc3)ccc1C)=C2O (stereo not shown) [Example 2-39, 3-(4′-chloro-4-methylbiphenyl-3-yl)-4-hydroxy-8-methoxy-1-oxaspiro[4.5]dec-3-en-2-one] | 216 | 3530
Cc1ccc(-c2ccc(F)cc2)cc1-c1c(O)c2ccc(F)cc2[nH]c1=O [Example 9-9, 7-fluoro-3-(4′-fluoro-4-methylbiphenyl-3-yl)-4-hydroxyquinolin-2(1H)-one] | 863 | > 20000
Cc1ccc(-c2ccc(Cl)cc2)cc1C1=C(O)C2(CCCCCC2)CC1=O [Example 6-7, 3-(4′-chloro-4-methylbiphenyl-3-yl)-4-hydroxyspiro[4.6]undec-3-en-2-one] | 467 | 654
